Assay results as given in PubChem BioAssay (NCI).
Several values for one entry are separate records, joined by “and”; a condition that tells them apart may be missing. Identical values can stand only once.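 Test compounds were applied to cells in 96-well plates for 48 hours at 5 doses. GI50 marks 50% less growth. TGI denotes the concentration required for complete inhibition of growth.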

Tests used:
Assay in all cases: NCI anticancer screen, dose series, 48 h
786-0 renal = system: 786-0 renal
CCRF-CEM leukemia = system: CCRF-CEM leukemia
HCT-15 colon = system: HCT-15 colon
HOP-62 NSCLC = system: HOP-62 NSCLC
MCF7 breast = system: MCF7 breast
NCI-H226 lung = system: NCI-H226 lung
NCI/ADR-RES ovarian = system: NCI/ADR-RES ovarian
OVCAR-5 ovarian = system: OVCAR-5 ovarian
SF-539 CNS = system: SF-539 CNS
SNB-75 CNS = system: SNB-75 CNS

SMILES | GI50 (786-0 renal) | TGI (786-0 renal) | GI50 (CCRF-CEM leukemia) | TGI (CCRF-CEM leukemia) | GI50 (HCT-15 colon) | TGI (HCT-15 colon) | GI50 (HOP-62 NSCLC) | TGI (HOP-62 NSCLC) | GI50 (MCF7 breast) | TGI (MCF7 breast) | GI50 (NCI-H226 lung) | TGI (NCI-H226 lung) | GI50 (NCI/ADR-RES ovarian) | TGI (NCI/ADR-RES ovarian) | GI50 (OVCAR-5 ovarian) | TGI (OVCAR-5 ovarian) | GI50 (SF-539 CNS) | TGI (SF-539 CNS) | GI50 (SNB-75 CNS) | TGI (SNB-75 CNS)
O=[N+]([O-])c1cc2c(ccc3occc32)o1 | 2.37 µM | 5 µM | 1.87 µM | 7.88 µM | 1.96 µM | 5.97 µM | 3.94 µM | 21.5 µM | 0.701 µM | 21.2 µM | 4.04 µM | 31.7 µM | 3.28 µM | 30.9 µM | 3.5 µM | 15.4 µM | 2.02 µM | 4.55 µM | 3.08 µM | 53.9 µM
c1ccc2c(CN3CCC(C4CCN(Cc5cccc6ccccc56)CC4)CC3)cccc2c1 |  | 32.2 µM and 34.5 µM | 13.7 µM and 4 µM | 65.3 µM and > 31.6 µM | 2.95 µM and 8.46 µM | 16.6 µM and > 100 µM |  | 21.4 µM and > 69.4 µM |  | > 73.7 µM | 31.7 µM and 96.8 µM | > 100 µM |  | > 100 µM | 22.3 µM and > 100 µM | > 100 µM | 3.63 µM and 8.99 µM | 9.53 µM and 18 µM | 2.77 µM and > 27.7 µM | 
NS(=O)(=O)c1ccc(N2N=C(c3cccs3)CC2c2ccccc2O)cc1 (stereo not drawn) | 1.84 µM | 8.45 µM | 1.4 µM | > 33.3 µM | 1.35 µM | > 33.3 µM | 2.67 µM | 9.46 µM | 1.01 µM | 4.45 µM | 3.4 µM | 17.4 µM | 4.84 µM | 19 µM | 1.25 µM | 6.11 µM | 0.706 µM | 1.76 µM | 0.437 µM | 1.76 µM
Cn1ncnc1C1c2n[nH]c(=O)c3cc(F)cc(c23)NC1c1ccc(F)cc1 (stereo not drawn) | > 100 µM | > 100 µM | 3.13 µM | > 100 µM | > 100 µM | > 100 µM | 7.79 µM | > 100 µM | 1.57 µM | > 100 µM | > 100 µM | > 100 µM | > 100 µM | > 100 µM | > 100 µM | > 100 µM | 5.39 µM | > 100 µM | 9.8 µM | > 100 µM
COc1cc2nncc(SCc3ccc(Cl)c(Cl)c3)c2cc1OC |  | > 100 µM |  | > 100 µM |  | > 100 µM |  | > 100 µM |  | > 100 µM |  | > 100 µM |  | > 100 µM |  | > 100 µM |  | > 100 µM |  | 73 µM
Nc1cc(-c2ccccc2)n(C(=O)Nc2ccc(Oc3ccccc3)cc2)n1 | 29.5 µM | > 100 µM | 18.9 µM | 93.3 µM | > 100 µM | > 100 µM | 30.2 µM | > 100 µM | 61.7 µM | > 100 µM | 49.5 µM | > 100 µM | 75.4 µM | > 100 µM | 96.3 µM | > 100 µM | 30.1 µM | > 100 µM |  | 3.04 µM
COc1cc(-c2oc3c(OC)c(O)cc(O)c3c(=O)c2OC)ccc1O |  | > 100 µM |  | 24.9 µM |  | > 100 µM |  |  |  | > 75.6 µM |  | 97.2 µM |  | > 83.5 µM |  | 78.7 µM |  | > 50.2 µM |  | 27.1 µM
